Laboratory results published in ChEMBL document CHEMBL4715849, “Recent Progress in the Discovery of Antifungal Agents Targeting the Cell Wall” (J Med Chem, 2020).
In brackets after ≈: the same amount, converted by molar mass.

What was measured:
Candida albicans [1] = test: Antifungal activity against Candida albicans ATCC 38248 incubated for 48 to 72 hrs by broth microdilution method; format: functional; settings: time 48-72 hrs
Pichia kudriavzevii [2] = test: Antifungal activity against Candida krusei incubated for 48 to 72 hrs by broth microdilution method; format: functional; settings: time 48-72 hrs
Chitin synthase 2 = Chitin synthase 2 (Candida albicans, UniProt P30572); test: Inhibition of Chitin synthase 2 in Candida albicans (chs3del::hisG/chs3del::hisG) microsomes using UDP-[U14C]-GlcNac as substrate; design: species or system Microsome
Chitin synthase 1 = Chitin synthase 1 (Candida albicans, UniProt P23316); test: Inhibition of Chitin synthase 1 in Candida albicans (chs3del::hisG/chs3del::hisG) microsomes using UDP-[U14C]-GlcNac as substrate; design: species or system Microsome
Candida albicans [3] = test: Antifungal activity against Candida albicans ATCC 10231 incubated for 48 to 72 hrs by broth microdilution method; format: functional; settings: time 48-72 hrs
[4] = test system: Meyerozyma guilliermondii; test: Antifungal activity against Candida guilliermondii incubated for 48 to 72 hrs by broth microdilution method; format: functional; settings: time 48-72 hrs
Candida albicans [5] = test: Antifungal activity against Candida albicans ATCC 44373 incubated for 48 to 72 hrs by broth microdilution method; format: functional; settings: time 48-72 hrs
Candida albicans [6] = test: Antifungal activity against Candida albicans ATCC 200955 incubated for 48 to 72 hrs by broth microdilution method; format: functional; settings: time 48-72 hrs
Candida albicans [7] = test: Antifungal activity against Candida albicans ATCC 26278 incubated for 24 hrs by serial dilution method; format: functional
Candida albicans [8] = test: Antifungal activity against Candida albicans ATCC 10261 incubated for 24 hrs by serial dilution method; format: functional
[9] = Inhibition of Candida albicans glucosamine-6-phosphate synthase by Elson-Morgan method
Pichia kudriavzevii [10] = test: Antifungal activity against Candida krusei FP585 by agar dilution method; format: functional
Candida albicans [11] = test: Antifungal activity against Candida albicans FP622 by agar dilution method; format: functional
Candida albicans [12] = test: Antifungal activity against Candida albicans FP616 by agar dilution method; format: functional
Candida parapsilosis [13] = test: Antifungal activity against Candida parakrusei FP586 by agar dilution method; format: functional; settings: Lodderomyces parapsilosis
Candida albicans [14] = test: Antifungal activity against Candida albicans FP614 by agar dilution method; format: functional
Candida tropicalis = test: Antifungal activity against Candida tropicalis FP583 by agar dilution method; format: functional
Candida albicans [15] = test: Antifungal activity against Candida albicans FP615 by agar dilution method; format: functional
Endochitinase A1 = Endochitinase A1 (Aspergillus fumigatus, UniProt Q873Y0); test: Inhibition of Aspergillus fumigatus chiA1 (Arg28 to His337) expressed in Pichia pastoris incubated for 70 mins using 4MU-NAc3 as substrate by fluorescence method
[16] = Inhibition of Saccharomyces cerevisiae CTS1 incubated for 70 mins by fluorescence method
Candida albicans [17] = test: Antifungal activity against Candida albicans ATCC 10231 by CLSI-based serial dilution method; format: functional
[18] = Inhibition of Candida albicans GFA1 using D-Fru6P and L-glutamine as substrate by absorbance method
[19] = Half life in Beagle dog at 1.4 mg/kg, iv measured up to 72 hrs by LC-MS/MS analysis; format: ADME, organism-based, Canis lupus familiaris; settings: in vivo
[20] = Half life in human at 50 mg by liquid chromatography-tandem mass spectrometry method; format: ADME; settings: in vivo
[21] = Inhibition of Candida albicans GFA1 using D-Fru6P and L-glutamine as substrate incubated for 30 mins by Elson-Morgan method
Pichia kudriavzevii [22] = test: Antifungal activity against Candida krusei DSM 6128 by CLSI-based serial dilution method; format: functional
[23] = Antifungal activity against Candida arborea KKP319 by CLSI-based serial dilution method; format: functional
Nakaseomyces glabratus = test: Antifungal activity against Candida glabrata DSM 11226 by CLSI-based serial dilution method; format: functional
Candida parapsilosis [24] = test: Antifungal activity against Candida parapsilosis ATCC22019 by CLSI method; format: functional; settings: Lodderomyces parapsilosis
Candida albicans [25] = test: Antifungal activity against Candida albicans Ca2323/ORF6.945 by CLSI method; format: functional
Aspergillus fumigatus = test: Antifungal activity against Aspergillus fumigatus MF5668 by CLSI method; format: functional
Candida albicans [26] = test: Antifungal activity against Candida albicans Ca1055 by CLSI method; format: functional

Chitin synthase 2, sequence (P30572 whole entry): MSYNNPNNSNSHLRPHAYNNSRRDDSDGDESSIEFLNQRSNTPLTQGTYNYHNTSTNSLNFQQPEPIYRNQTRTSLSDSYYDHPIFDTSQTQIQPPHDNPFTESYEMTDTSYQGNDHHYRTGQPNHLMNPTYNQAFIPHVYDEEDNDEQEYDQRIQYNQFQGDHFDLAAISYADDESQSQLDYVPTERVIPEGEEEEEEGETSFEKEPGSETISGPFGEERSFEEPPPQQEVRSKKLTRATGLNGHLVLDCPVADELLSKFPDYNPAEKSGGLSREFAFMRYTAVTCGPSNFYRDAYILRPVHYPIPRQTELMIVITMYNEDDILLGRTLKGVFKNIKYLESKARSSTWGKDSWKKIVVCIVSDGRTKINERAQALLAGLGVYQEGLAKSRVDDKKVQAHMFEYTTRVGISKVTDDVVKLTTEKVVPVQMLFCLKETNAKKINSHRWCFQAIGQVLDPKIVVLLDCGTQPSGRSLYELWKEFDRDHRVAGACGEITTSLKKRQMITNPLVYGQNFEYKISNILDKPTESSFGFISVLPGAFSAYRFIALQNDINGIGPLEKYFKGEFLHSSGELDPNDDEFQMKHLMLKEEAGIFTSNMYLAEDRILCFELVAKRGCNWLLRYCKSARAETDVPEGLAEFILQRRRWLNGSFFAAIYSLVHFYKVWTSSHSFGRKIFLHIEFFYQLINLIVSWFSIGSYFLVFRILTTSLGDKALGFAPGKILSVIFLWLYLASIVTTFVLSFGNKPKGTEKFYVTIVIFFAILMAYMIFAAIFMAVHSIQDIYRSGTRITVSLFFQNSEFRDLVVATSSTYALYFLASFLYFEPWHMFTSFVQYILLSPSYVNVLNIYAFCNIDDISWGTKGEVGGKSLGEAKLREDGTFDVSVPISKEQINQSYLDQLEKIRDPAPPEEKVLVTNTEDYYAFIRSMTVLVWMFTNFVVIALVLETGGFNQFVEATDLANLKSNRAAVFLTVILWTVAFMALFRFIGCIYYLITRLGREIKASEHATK
Endochitinase A1, sequence (Q873Y0 whole entry): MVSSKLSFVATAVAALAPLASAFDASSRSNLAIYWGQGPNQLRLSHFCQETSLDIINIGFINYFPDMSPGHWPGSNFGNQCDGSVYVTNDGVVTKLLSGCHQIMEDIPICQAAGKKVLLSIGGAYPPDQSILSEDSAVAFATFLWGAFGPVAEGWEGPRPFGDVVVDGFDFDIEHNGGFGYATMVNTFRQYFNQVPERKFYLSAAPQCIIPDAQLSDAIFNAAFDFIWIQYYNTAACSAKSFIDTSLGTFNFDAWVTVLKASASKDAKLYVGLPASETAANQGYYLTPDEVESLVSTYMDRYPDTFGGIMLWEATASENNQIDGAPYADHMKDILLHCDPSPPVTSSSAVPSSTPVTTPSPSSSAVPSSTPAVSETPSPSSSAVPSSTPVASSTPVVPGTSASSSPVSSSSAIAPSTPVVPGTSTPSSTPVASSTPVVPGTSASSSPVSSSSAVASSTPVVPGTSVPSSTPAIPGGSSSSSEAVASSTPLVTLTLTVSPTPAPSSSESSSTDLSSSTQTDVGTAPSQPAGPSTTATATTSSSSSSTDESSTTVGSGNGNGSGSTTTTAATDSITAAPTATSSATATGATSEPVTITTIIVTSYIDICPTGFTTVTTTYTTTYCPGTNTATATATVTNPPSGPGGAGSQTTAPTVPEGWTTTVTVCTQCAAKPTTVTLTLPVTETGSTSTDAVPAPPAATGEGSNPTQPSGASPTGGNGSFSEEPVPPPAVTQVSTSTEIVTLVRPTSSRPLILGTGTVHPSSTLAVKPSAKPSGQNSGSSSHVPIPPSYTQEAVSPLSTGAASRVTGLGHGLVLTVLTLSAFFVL
Chitin synthase 1, sequence (P23316 whole entry): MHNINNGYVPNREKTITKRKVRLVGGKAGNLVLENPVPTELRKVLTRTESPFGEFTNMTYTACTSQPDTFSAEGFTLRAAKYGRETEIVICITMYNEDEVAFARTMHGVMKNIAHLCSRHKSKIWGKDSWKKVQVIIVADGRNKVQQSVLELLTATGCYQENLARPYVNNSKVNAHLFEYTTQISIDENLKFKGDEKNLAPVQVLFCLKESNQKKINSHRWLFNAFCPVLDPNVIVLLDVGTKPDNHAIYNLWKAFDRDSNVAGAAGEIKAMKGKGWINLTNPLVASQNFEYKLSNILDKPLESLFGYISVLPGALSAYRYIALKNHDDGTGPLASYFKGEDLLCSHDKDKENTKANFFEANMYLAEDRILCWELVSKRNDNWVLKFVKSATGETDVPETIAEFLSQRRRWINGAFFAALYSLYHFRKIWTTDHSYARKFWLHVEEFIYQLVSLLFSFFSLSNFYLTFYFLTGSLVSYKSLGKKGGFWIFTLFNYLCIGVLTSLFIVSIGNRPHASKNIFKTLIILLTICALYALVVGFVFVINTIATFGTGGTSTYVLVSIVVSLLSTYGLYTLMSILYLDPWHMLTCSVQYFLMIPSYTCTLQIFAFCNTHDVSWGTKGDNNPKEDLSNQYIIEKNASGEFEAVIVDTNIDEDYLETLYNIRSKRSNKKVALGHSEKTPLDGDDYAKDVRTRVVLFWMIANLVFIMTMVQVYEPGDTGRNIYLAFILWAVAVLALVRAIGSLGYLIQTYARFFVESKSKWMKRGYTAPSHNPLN

COc1ccc2c(Cc3ccc(C(C)(C)C)cc3)c3[n+](cc2c1OC)CCc1cc2c(cc1-3)OCO2
MIC (Candida albicans [1]): 1.56 µg/mL | MIC (Pichia kudriavzevii [2]): 1.56 µg/mL | IC50 (Chitin synthase 2): 22 µM | IC50 (Chitin synthase 1): 22 µM | MIC (Candida albicans [3]): 1.56 µg/mL | MIC [4]: 6.25 µg/mL | MIC (Candida albicans [5]): 1.56 µg/mL | MIC (Candida albicans [6]): 1.56 µg/mL

N[C@@H](CO)[C@@H](O)[C@H](O)[C@H](O)COP(=O)(O)O
MIC (Candida albicans [7]): 5000 µg/mL (≈ 19100 µM) | MIC (Candida albicans [8]): 5000 µg/mL (≈ 19100 µM) | IC50 [9]: 230 µM

CCC/C=C/C=C/[C@@H](O)C/C=C/C=C/C(=O)O[C@H]1[C@H](O[C@@H]2O[C@H](COC(=O)/C=C/C=C\CCCCC)[C@H](O)[C@H](O)[C@H]2O)[C@@H](CO)O[C@]2(OCc3cc(O)cc(O)c32)[C@@H]1O
MIC (Pichia kudriavzevii [10]): 0.1 µg/mL (≈ 0.12 µM) | MIC (Candida albicans [11]): 0.1 µg/mL (≈ 0.12 µM) | MIC (Candida albicans [12]): 0.1 µg/mL (≈ 0.12 µM) | MIC (Candida parapsilosis [13]): 0.1 µg/mL (≈ 0.12 µM) | MIC (Candida albicans [14]): 0.1 µg/mL (≈ 0.12 µM) | MIC (Candida tropicalis): 0.1 µg/mL (≈ 0.12 µM) | MIC (Candida albicans [15]): 0.1 µg/mL (≈ 0.12 µM)

Cc1ccc(OCC(O)CNC2Cc3ccccc3C2)cc1C (stereo unspecified)
IC50 (Endochitinase A1): 9.2 µM | IC50 [16]: 2.4 µM

CC(=O)N[C@H]1C(O)O[C@H](CS(=O)(=O)O)[C@@H](O)[C@@H]1O (stereo partly specified)
MIC (Candida albicans [17]): 500 µg/mL (≈ 1750 µM) | IC50 [18]: > 5000 µM

CC(=O)[O-].CCCCCOc1ccc(-c2ccc(-c3ccc(C(=O)N[C@H]4C[C@@H](O)[C@@H](NCC[N+](C)(C)C)NC(=O)[C@@H]5[C@@H](O)[C@@H](C)CN5C(=O)[C@H]([C@@H](C)O)NC(=O)[C@H]([C@H](O)[C@@H](O)c5ccc(O)cc5)NC(=O)[C@@H]5C[C@@H](O)CN5C(=O)[C@H]([C@@H](C)O)NC4=O)cc3)cc2)cc1
half-life [19]: 53.1 h | half-life [20]: > 130 h

N[C@@H](CO)[C@@H](O)[C@H](O)[C@H](O)CS(=O)(=O)O
MIC (Candida albicans [17]): 1000 µg/mL (≈ 4080 µM) | IC50 [21]: 130 µM

COS(=O)(=O)C[C@H]1OC(O)[C@H](N)[C@@H](O)[C@@H]1O (stereo partly specified)
MIC (Pichia kudriavzevii [22]): > 4000 µg/mL | MIC (Candida albicans [17]): > 4000 µg/mL | MIC [23]: > 4000 µg/mL | MIC (Nakaseomyces glabratus): > 4000 µg/mL

Nc1ccccc1C(=O)OCC#CCOC(=O)c1ccccc1N
MIC (Candida parapsilosis [24]): 2 µg/mL (≈ 6.17 µM) | MIC (Candida albicans [25]): 4 µg/mL (≈ 12.3 µM) | MIC (Aspergillus fumigatus): 4 µg/mL (≈ 12.3 µM) | MIC (Candida albicans [26]): 4 µg/mL (≈ 12.3 µM)

N[C@H]1C(O)O[C@H](CS(=O)(=O)O)[C@@H](O)[C@@H]1O (stereo partly specified)
MIC (Candida albicans [17]): 1000 µg/mL (≈ 4110 µM) | IC50 [18]: 80 µM
